# According to article PMC2810227, “3-O-Methylfunicone, a Selective Inhibitor of Mammalian Y-Family DNA Polymerases from an Australian Sea Salt Fungal Strain” (Marine Drugs, 2009):
# How the values were obtained:
# rice pol λ = biological target: T1, rice pol λ (Oryza sativa subsp. japonica, UniProt Q67VC8); assay: DNA polymerase assay, plant pol λ; type: biochemical, rice (Oryza sativa L. cv. Nipponbare); details: 100 μM
# T1 construct: His; made in house
# Excerpt: (§1) Pol α was purified from calf thymus by immuno-affinity column chromatography, as described by Tamai et al.. Recombinant rat pol β was purified from E. coli JMpβ5, as described by Date et al.. The human pol γ catalytic gene was cloned into pFastBac. Histidine-tagged enzyme was expressed using the BAC-TO-BAC HT Baculovirus Expression System according to the supplier’s manual (Life Technologies, MD, USA) and purified using ProBoundresin (Invitrogen Japan, Tokyo, Japan). Human pols δ and ɛ were purified by nuclear fractionation of human peripheral blood cancer cells (Molt-4) using the second subunit of pols δ and ɛ-conjugated affinity column chromatography, respectively. A truncated form of human pol η (residues 1–511) tagged with His6 at its C-terminal was expressed in E. coli cells and purified as described by Kusumoto et al.. A recombinant mouse pol ι tagged with His6 at its C-terminal was expressed and purified by Ni-NTA column chromatography as described elsewhere (Masutani et al., in preparation). […]
# (§2) The compounds were dissolved in distilled dimethyl sulfoxide (DMSO) at various concentrations and sonicated for 30 sec. […] Activity without the inhibitor was considered 100%, and the remaining activity at each concentration of the inhibitor was determined relative to this value. […]
# [1] = biological target: T2, human immunodeficiency virus type-1 (HIV-1) reverse transcriptase (Human immunodeficiency virus type 1 group M subtype B, UniProt P03366); assay: HIV-1 reverse transcriptase assay; type: biochemical; details: 100 μM
# T2 construct: HIV-1 reverse transcriptase (recombinant); purchased Worthington Biochemical Corp. (Freehold, NJ, USA)
# Excerpt: as §1, §2
# UV-treated HeLa cells = assay: UV-treated clonogenic assay; type: cell-based, human; details: 10 J/m^2 UV
# Protocol: Figure 5. (A) Human cancer cell growth inhibition dose-response curves of 3-O-methyl-funicone (1). Various concentrations (0 to 150 μM) of compound 1 were incubated with human colon carcinoma (HCT116) cells (circle) and human cervix carcinoma (HeLa) cells (square) for 24 h. Rate of cell growth was determined by MTT assay as described in the Experimental section. Data are shown as the means ± SEM of five independent experiments. (B) Clonogenic survival of UV-treated HeLa cells by compound 1. Various concentrations (0 to 100 μM) of compound 1 were incubated with 10 J/m^2 UV-treated (closed circle) or untreated (open circle) HeLa cells. After 7 days, the number of colonies in each treatment group was counted. Values are the means ± SEM of two independent experiments.
# For clonogenic assay, 600 cells of HeLa were seeded on 10-cm plates and allowed to grow for 24 h before 10 J/m^2 UV irradiation treatment. The cells were then treated with various concentrations of compound 1 for 24 h. The cells were then washed with PBS and fresh medium was added for an additional 7-day incubation in a humidified 10% CO2 incubator at 37 °C. […] The number of colonies in each treatment group was counted, and the cell survival data were presented as percentage of the colony numbers of treated/untreated cells.
# calf thymus TdT = biological target: T3, calf thymus TdT (Bos taurus, UniProt P06526); assay: DNA polymerase assay, TdT; type: biochemical; details: 100 μM
# T3 construct: purchased Stratagene Cloning Systems (La Jolla, CA, USA)
# Excerpt: as §1, §2
# T4 polynucleotide kinase = biological target: T4, T4 polynucleotide kinase (Enterobacteria phage T4, UniProt P06855); assay: T4 polynucleotide kinase assay; type: biochemical; details: 100 μM
# T4 construct: purchased Takara Bio (Tokyo, Japan)
# Excerpt: as §1, with “al..” for “al.. A recombinant mouse pol ι tagged with His6 at its C-terminal was expressed and purified by Ni-NTA column chromatography as described elsewhere (Masutani et al., in preparation).”
# The activities of calf primase of pol α, human telomerase, T7 RNA polymerase, mouse IMP dehydrogenase, human DNA topoisomerases I and II, T4 polynucleotide kinase and bovine DNase I were measured in standard assays according to the manufacturer’s specifications, as described by Tamiya-Koizumi et al., Oda et al., Nakayama et al., Mizushina et al., Ishimaru et al., Soltis et al. and Lu et al., respectively.
# Taq pol = biological target: T5, Taq pol (Thermus aquaticus, UniProt P19821); assay: DNA polymerase assay, Taq pol; type: biochemical; details: 100 μM; 74 °C
# T5 construct: purchased Takara Bio (Tokyo, Japan)
# Excerpt: as §1, §2
# [2] = test system: HDF (human dermal fibroblast); assay: Proliferation and growth of normal cells, HDF; type: cell-based; details: data not shown
# human pol λ = biological target: T6, human pol λ (Homo sapiens, UniProt Q9UGP5); assay: DNA polymerase assay, pol λ; type: biochemical; details: 100 μM
# T6 construct: His; made in house
# Excerpt: as §1, §2
# T1 sequence (Q67VC8 whole entry): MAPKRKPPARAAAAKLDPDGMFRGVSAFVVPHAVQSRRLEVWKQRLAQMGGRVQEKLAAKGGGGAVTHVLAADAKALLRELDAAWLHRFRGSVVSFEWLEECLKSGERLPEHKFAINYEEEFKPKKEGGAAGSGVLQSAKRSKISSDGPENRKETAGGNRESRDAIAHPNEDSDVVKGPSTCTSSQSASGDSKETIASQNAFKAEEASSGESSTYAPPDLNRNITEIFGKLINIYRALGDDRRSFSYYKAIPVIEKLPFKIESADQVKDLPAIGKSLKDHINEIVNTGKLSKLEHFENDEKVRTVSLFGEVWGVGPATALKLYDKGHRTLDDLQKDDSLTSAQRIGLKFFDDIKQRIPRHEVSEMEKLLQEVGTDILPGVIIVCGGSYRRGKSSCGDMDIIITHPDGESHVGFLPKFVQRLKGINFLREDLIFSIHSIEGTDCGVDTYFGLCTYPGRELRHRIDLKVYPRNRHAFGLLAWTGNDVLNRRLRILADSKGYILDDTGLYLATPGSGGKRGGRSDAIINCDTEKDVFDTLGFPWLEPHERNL
# T6 sequence (Q9UGP5 whole entry): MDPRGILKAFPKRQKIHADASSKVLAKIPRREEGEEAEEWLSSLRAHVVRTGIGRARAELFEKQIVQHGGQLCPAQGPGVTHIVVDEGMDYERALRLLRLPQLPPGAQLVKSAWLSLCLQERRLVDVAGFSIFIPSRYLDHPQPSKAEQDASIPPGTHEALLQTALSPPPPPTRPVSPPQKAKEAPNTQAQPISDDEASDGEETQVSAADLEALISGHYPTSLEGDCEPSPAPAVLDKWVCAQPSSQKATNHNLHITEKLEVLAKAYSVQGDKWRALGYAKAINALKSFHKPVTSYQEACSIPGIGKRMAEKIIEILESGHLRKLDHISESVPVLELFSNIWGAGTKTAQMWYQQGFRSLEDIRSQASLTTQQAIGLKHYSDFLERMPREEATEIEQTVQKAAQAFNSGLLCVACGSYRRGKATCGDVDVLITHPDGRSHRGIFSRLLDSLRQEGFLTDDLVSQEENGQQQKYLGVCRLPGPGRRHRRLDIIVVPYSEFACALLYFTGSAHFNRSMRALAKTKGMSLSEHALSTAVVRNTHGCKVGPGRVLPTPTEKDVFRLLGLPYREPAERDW
# T5 sequence (P19821 whole entry): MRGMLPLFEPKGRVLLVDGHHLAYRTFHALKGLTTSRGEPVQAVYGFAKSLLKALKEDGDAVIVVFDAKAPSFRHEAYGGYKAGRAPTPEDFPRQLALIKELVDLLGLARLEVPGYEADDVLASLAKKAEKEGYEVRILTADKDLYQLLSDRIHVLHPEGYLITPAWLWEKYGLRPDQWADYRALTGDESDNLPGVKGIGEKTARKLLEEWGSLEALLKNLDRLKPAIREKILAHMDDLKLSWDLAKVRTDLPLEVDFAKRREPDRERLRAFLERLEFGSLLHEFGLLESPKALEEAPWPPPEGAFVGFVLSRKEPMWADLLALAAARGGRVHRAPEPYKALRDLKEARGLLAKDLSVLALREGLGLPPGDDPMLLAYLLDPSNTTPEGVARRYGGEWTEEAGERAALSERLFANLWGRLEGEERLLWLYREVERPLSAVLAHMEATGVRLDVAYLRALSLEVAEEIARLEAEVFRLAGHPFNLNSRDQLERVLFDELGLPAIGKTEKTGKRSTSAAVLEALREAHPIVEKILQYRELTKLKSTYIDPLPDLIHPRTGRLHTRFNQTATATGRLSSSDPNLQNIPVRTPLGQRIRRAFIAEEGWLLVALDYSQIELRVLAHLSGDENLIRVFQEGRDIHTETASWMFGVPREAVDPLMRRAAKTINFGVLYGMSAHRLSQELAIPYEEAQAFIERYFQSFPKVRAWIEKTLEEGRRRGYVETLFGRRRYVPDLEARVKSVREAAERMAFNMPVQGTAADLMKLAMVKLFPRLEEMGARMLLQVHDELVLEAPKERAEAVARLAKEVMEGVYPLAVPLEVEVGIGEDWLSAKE
# T3 sequence (P06526 whole entry): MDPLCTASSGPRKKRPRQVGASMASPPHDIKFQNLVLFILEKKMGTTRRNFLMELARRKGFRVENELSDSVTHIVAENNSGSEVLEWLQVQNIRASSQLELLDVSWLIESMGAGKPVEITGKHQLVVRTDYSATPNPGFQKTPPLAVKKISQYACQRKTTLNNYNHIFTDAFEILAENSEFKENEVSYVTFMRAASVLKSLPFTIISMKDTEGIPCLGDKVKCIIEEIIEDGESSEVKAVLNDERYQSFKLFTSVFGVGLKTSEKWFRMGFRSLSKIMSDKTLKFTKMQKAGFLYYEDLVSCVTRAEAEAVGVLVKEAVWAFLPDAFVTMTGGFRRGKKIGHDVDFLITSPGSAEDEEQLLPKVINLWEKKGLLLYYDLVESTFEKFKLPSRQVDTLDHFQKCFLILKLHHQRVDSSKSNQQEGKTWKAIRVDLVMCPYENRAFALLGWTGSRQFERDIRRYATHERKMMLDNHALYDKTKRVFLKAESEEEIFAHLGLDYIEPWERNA
smiles,measurement,setting,value
"C/C=C/c1occ(C(=O)c2c(OC)cc(OC)cc2C(=O)OC)c(=O)c1OC [compound 1, 3-O-methylfunicone]",effect on rice pol λ activity,rice pol λ,no effect
same,effect on HIV-1 reverse transcriptase activity,[1],did not influence
same,inhibiting clonogenic survival effect on UV exposed cells versus non-exposed cells,"UV-treated HeLa cells; 100 μM, HeLa, 7 days",4.3 fold
same,HeLa cell UV-sensitivity,UV-treated HeLa cells; 0 to 100 μM,significantly enhanced
same,effect on TdT activity,calf thymus TdT,hardly influenced
same,effect on T4 polynucleotide kinase activity,T4 polynucleotide kinase,did not influence
same,effect on Taq pol activity,Taq pol,no effect
same,effect on cell proliferation and growth,[2],did not influence
same,effect on pol λ activity,human pol λ,hardly influenced
